Measurements from patent US7910612B2, “4-oxy-N-[1,3,4]-thiadiazol-2-yl-benzene sulfonamides, pharmaceutical compositions and methods for their therapeutic use” (Sanofi-Aventis, priority 2005, dated 2011).

The compounds below were run against T1, human PPARalpha (Homo sapiens, UniProt Q07869) (assay: cellular PPARalpha assay (stably transfected HEK luciferase reporter cell line)).
T1 construct: amino acids S167-Y468; expressed in transfected cells; host or cells: HEK (human embryo kidney) cells, stably transfected, pcDNA3 vector
T1 sequence (Q07869 167-468): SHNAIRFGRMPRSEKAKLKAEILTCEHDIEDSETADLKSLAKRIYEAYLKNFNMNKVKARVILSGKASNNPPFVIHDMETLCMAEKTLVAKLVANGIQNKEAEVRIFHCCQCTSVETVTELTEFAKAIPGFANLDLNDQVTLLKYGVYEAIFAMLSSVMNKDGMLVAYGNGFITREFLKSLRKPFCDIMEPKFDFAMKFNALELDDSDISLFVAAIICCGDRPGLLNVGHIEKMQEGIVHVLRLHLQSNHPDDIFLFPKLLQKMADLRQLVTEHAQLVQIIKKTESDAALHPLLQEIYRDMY
Assay type: cell-based
Experimental: The activity of the compounds was tested by a determination of EC50 values of PPAR agonists in the cellular PPARalpha assay. The potency of substances which bind to human PPARalpha and activate it in an agonistic manner is analyzed using a stably transfected HEK cell line (HEK=human embryo kidney) which is referred to here as PPARalpha reporter cell line. It contains two genetic elements, a luciferase reporter element (pdeltaM-GAL4-Luc-Zeo) and a PPARalpha fusion protein (GR-GAL4-humanPPARalpha-LBD) which mediates expression of the luciferase reporter element depending on a PPARalpha ligand. The stably and constitutively expressed fusion protein GR-GAL4-humanPPARalpha-LBD binds in the cell nucleus of the PPARalpha reporter cell line via the GAL4 protein portion to the GAL4 DNA binding motifs 5′-upstream of the luciferase reporter element which is stably integrated in the genome of the cell line. There is only weak expression of the luciferase reporter gene in the absence of a PPARalpha ligand if fatty acid-depleted fetal calf serum (cs-FCS) is used in the assay. PPARalpha ligands bind and activate the PPARalpha fusion protein and thereby stimulate the expression of the luciferase reporter gene. The luciferase which is formed can be detected by means of chemiluminescence via an appropriate substrate.
The PPARalpha reporter cell line was prepared in two stages. Firstly, the luciferase reporter element was constructed and stably transfected into HEK cells. For this purpose, five binding sites of the yeast transcription factor GAL4 (Accession # AF264724) were cloned in 5′-upstream of a 68 bp-long minimal MMTV promoter (Accession #V01175). The minimal MMTV promoter section contains a […] and a TATA element in order to enable efficient transcription by RNA polymerase II. The cloning and sequencing of the GAL4-MMTV construct took place in analogy to the description of Sambrook J. et. al. (Molecular cloning, Cold Spring Harbor Laboratory Press, 1989). Then the complete Photinus pyralis gene (Accession #M15077) was cloned in 3′-downstream of the GAL4-MMTV element. After sequencing, the luciferase reporter element consisting of five GAL4 binding sites, MMTV promoter and luciferase gene was recloned into a plasmid which confers zeocin resistance in order to obtain the plasmid pdeltaM-GAL4-Luc-Zeo. This vector was transfected into HEK cells in accordance with the statements in Ausubel, F. M. et al. (Current protocols in molecular biology, Vol. 1-3, John Wiley & Sons, Inc., 1995).
In a second step, the PPARalpha fusion protein (GR-GAL4-humanPPARalpha-LBD was introduced into the stable cell clone described. For this purpose, initially the cDNA coding for the N-terminal 76 amino acids of the glucocorticoid receptor (Accession #P04150) was linked to the cDNA section coding for amino acids 1-147 of the yeast transcription factor GAL4 (Accession #P04386). The cDNA of the ligand-binding domain of the human PPARalpha receptor (amino acids S167-Y468; Accession #S74349) was cloned in at the 3′-end of this GR-GAL4 construct. The fusion construct prepared in this way (GR-GAL4-humanPPARalpha-LBD) was recloned into the plasmid pcDNA3 (Invitrogen) in order to enable constitutive expression therein by the cytomegalovirus promoter. This plasmid was linearized with a restriction endonuclease and stably transfected into the previously described cell clone containing the luciferase reporter element. The finished PPARalpha reporter cell line which contains a luciferase reporter element and constitutively expresses the PPARalpha fusion protein (GR-GAL4-human PPARalpha-LBD) was isolated by selection with zeocin (0.5 mg/ml) and G418 (0.5 mg/ml).
Assay procedure.—The activity of PPARalpha agonists is determined in a 3-day assay which is described below: […]

| Compound | EC50 |
| --- | --- |
| Cc1nc(-c2ccc(C(F)(F)F)cc2)sc1COc1ccc(S(=O)(=O)Nc2nnc(C(C)C)s2)cc1 [Example 1, N-(5-Isopropyl-[1,3,4]thiadiazol-2-yl)-4-[4-methyl-2-(4-trifluoromethyl-phenyl)-thiazol-5-ylmethoxy]-benzenesulfonamide] | 2900 nM |
| COc1ccc2c(COc3ccc(S(=O)(=O)Nc4nnc(C(C)C)s4)cc3)coc2c1 [Example 3, N-(5-Isopropyl-[1,3,4]thiadiazol-2-yl)-4-(6-methoxy-benzofuran-3-ylmethoxy)-benzenesulfonamide] | 4570 nM |
| CC(C)c1nnc(NS(=O)(=O)c2ccc(OCc3ccc(Oc4ccc(C(F)(F)F)cc4)cc3)cc2)s1 [Example 4, N-(5-Isopropyl-[1,3,4]thiadiazol-2-yl)-4-[4-(4-trifluoromethyl-phenoxy)-benzyloxy]-benzenesulfonamide] | 540 nM |
| COc1ccc(-c2nc(COc3ccc(S(=O)(=O)Nc4nnc(C(C)C)s4)cc3)no2)cc1 [Example 9, N-(5-Isopropyl-[1,3,4]thiadiazol-2-yl)-4-[5-(4-methoxy-phenyl)-[1,2,4]oxadiazol-3-ylmethoxy]-benzenesulfonamide] | 1420 nM |
| COc1ccc(-c2nc(COc3ccc(S(=O)(=O)Nc4nnc(C(C)C)s4)cc3)co2)cc1 [Example 13, N-(5-Isopropyl-[1,3,4]thiadiazol-2-yl)-4-[2-(4-methoxy-phenyl)-oxazol-4-ylmethoxy]-benzenesulfonamide] | 1200 nM |
| CCc1oc(-c2cccc(C(F)(F)F)c2)nc1COc1ccc(S(=O)(=O)Nc2nnc(C(C)C)s2)cc1 [Example 14, 4-[5-Ethyl-2-(3-trifluoromethyl-phenyl)-oxazol-4-ylmethoxy]-N-(5-isopropyl-[1,3,4]thiadiazol-2-yl)-benzenesulfonamide] | 190 nM |
